Series [1] can be described thus: TEM analysis of self-assembled morphology, with and without ALP enzyme. Type of series: physicochemical. To be noted: 15 μM, before ALP treatment. The procedure: L-Mito-FFYp consists of a tripeptide backbone Phe–Phe–Tyrp (Tyrp stands for tyrosine phosphate) in which pyrene butyric acid is capped on the N-terminus to promote the self-assembly and TPP is conjugated to the amine group of the lysine side chain for targeting the mitochondria (Fig. S1, ESI ^†). The CAC of L-Mito-FFYp was determined to be 12 μM via pyrene excitation method (Fig. 1A). […] The EIMT of L-Mito-FFYp was investigated by treating it with ALP enzyme. After 24 h incubation (37 °C), fibers having a diameter of ca. 10 nm were observed via transmission electron microscopy (TEM) analysis (Fig. 1D). Specifically, micelles with a diameter of 53 nm were converted into fibers with a diameter of 12.9 nm, most likely by the action of the ALP enzyme. To confirm that the fiber structure corresponded to L-Mito-FFY, L-Mito-FFY was separately synthesized and purified (Fig. S2A and B, ESI ^†). It was supposed after the phosphate group cleaved from the ALP enzyme. The L-tyrosine phosphate was replaced with L-tyrosine. Its self-assembled morphology was analyzed via TEM. […]
(§1) Imaging of apoptosis/necrosis-dependent cell death. […] The cells were then washed gently, the medium was replaced with DMEM medium, and the cells were analyzed using an LSM780 laser confocal scanning microscope. […]

The subject of a further series is cytochrome C. As to the kind of experiment: Western blotting of cytochrome C release. To be noted: western blotting after treatment. It is filed as cell-based. As for the experimental part: (§2) To confirm that the cytotoxicity of L-Mito-FFYp stems from its selectivity toward ALP and the consequent morphology transformation, the cytotoxicity was evaluated toward Saos-2, HeLa, SK-BR-3, and NIH-3T3 cell lines. SK-BR-3 and NIH-3T3 cell lines are known to express fewer ALP enzymes. […] And the cytotoxicity of L-Mito-FFYp in the Saos-2 cell line was analyzed in the presence and absence of endocytosis inhibitors such as chlorpromazine (clathrin), sucrose (macropinocytosis), and M-β-cyclodextrin (caveolin). […] To further verify the important role of the phosphate moiety, we synthesized L-Mito-FFY compound (Fig. S2, ESI ^†). […] After phosphoric acid was cleaved by the ALP enzyme overexpressed in the Saos-2 cell membrane, Mito-FFY was accumulated in the mitochondria. As a result, apoptosis occurred due to mitochondrial membrane disruption induced by self-assembled fibers inside the mitochondria.
Fig. 3 (A) Cell viability analysis of L-Mito-FFYp in Saos-2, HeLa, SK-BR-3 and NIH 3T3 cell lines for an incubation time of 48 h. (B) Cell viability analysis of L-Mito-FFYp in the presence of different endocytosis inhibitos. […] (E) Western blotting analysis showing the release of cytochrome C after treatment with L-Mito-FFYp. […] They are left out because Control is not a substance, and the digits are not readable with certainty

The nature of series [2]: Cell viability in the presence of ALP inhibitor NBT-BCIP. Type of series: cell-based. The conditions noted are these: co-treatment with NBT-BCIP solution. As for the experimental part:
as §2
Figure S14. Cell viability analysis of Mito-FFYp in the presence of ALP inhibitor, NBT-BCIP.
(1 picture or pasted object on this page, not shown here)

For a further series, the system named is Saos-2 cells. As to the kind of experiment: FITC-annexin V/PI assay (confocal imaging and FACS) for mechanism of cell death. Type of series: cell-based. To be noted: FITC-annexin V/PI staining. As for the experimental part: as §2
Fig. 3 (A) Cell viability analysis of L-Mito-FFYp in Saos-2, HeLa, SK-BR-3 and NIH 3T3 cell lines for an incubation time of 48 h. […] They are left out because Control is not a substance, and the digits are not readable with certainty […]
as §1

Series [3] has as its system Saos-2 cell line. It is filed as cell-based. The procedure:
as §2
(§3) Fig. 3 (A) Cell viability analysis of L-Mito-FFYp in Saos-2, HeLa, SK-BR-3 and NIH 3T3 cell lines for an incubation time of 48 h. (B) Cell viability analysis of L-Mito-FFYp in the presence of different endocytosis inhibitos. […] (E) Western blotting analysis showing the release of cytochrome C after treatment with L-Mito-FFYp. TEXT PRINTED IN THE PICTURE: (D) Mito-FFYp: Q1 0.91; Q2 26.4; Q3 8.97; Q4 63.7 DOUBTS OF THE COPYIST ABOUT THIS PICTURE: Mito-FFYp, panel D, Q1: very small blurred print, 0.91 uncertain (could be 0.51 or 0.61) / Mito-FFYp, panel D, Q2: very small blurred print, 26.4 uncertain (6 could be 5 or 8) / Mito-FFYp, panel D, Q3: very small blurred print, 8.97 uncertain (could be 6.97 or 8.57) / Mito-FFYp, panel D, Q4: very small blurred print, 63.7 uncertain (could be 65.7 or 83.7) / Panel D, Control plot also prints quadrant numbers (about Q1 0.090, Q2 0.24, Q3 0.078, Q4 99.6). […]
(§4) M. T. Jeena,‡a Seongeon Jin,‡ a Batakrishna Jana,a and Ja-Hyoung Ryu,*a Materials. All peptides were synthesized manually on a […] scale. The products were purified by high-performance liquid chromatography (HPLC, Agilent Technologies, USA) with a C-18 reverse column in ACN/water mixture. […]

In another series the test system is SK-BR-3 cell line. Type of series: cell-based. To be noted: 48 h, 10 μM. The procedure: as §2, §3, §4
The test system of series [4] is Saos-2 cell line. In words: Cellular ROS by dihydroethidium (DHE) staining, confocal microscopy and flow cytometry. To be noted: Saos-2, DHE staining, 20 μM. Type of series: cell-based.
Series [5] is described as follows: Surface charge (zeta potential) analysis. To be noted: 15 μM solution (over the CAC value). Type of series: physicochemical.
A further series deals with HeLa cells. In words: Cell viability, MTT assay. To be noted: 48 h incubation, read-out: Concentration at which 50% viability was observed. Type of series: cell-based. The procedure: as §2
(§5) Fig. 3 (A) Cell viability analysis of L-Mito-FFYp in Saos-2, HeLa, SK-BR-3 and NIH 3T3 cell lines for an incubation time of 48 h. (B) Cell viability analysis of L-Mito-FFYp in the presence of different endocytosis inhibitos. […] (E) Western blotting analysis showing the release of cytochrome C after treatment with L-Mito-FFYp. […]

The test system of the next series is NIH-3T3 cell line. In words: Cell viability, MTT assay. To be noted: NIH 3T3, 10 μM, 48 h incubation. It is filed as cell-based. As for the experimental part:
as §2, §5
On the technique in general: Tetrazolium assays rely on reduction of a dye to a coloured formazan, in cell work by metabolically active cells.

Series [6] is described as follows: CAC determination by pyrene excitation method. It is filed as physicochemical. As for the experimental part:
L-Mito-FFYp consists of a tripeptide backbone Phe–Phe–Tyrp (Tyrp stands for tyrosine phosphate) in which pyrene butyric acid is capped on the N-terminus to promote the self-assembly and TPP is conjugated to the amine group of the lysine side chain for targeting the mitochondria (Fig. S1, ESI ^†). The CAC of L-Mito-FFYp was determined to be 12 μM via pyrene excitation method (Fig. 1A). […] The EIMT of L-Mito-FFYp was investigated by treating it with ALP enzyme. After 24 h incubation (37 °C), fibers having a diameter of ca. 10 nm were observed via transmission electron microscopy (TEM) analysis (Fig. 1D). Specifically, micelles with a diameter of 53 nm were converted into fibers with a diameter of 12.9 nm, most likely by the action of the ALP enzyme. To confirm that the fiber structure corresponded to L-Mito-FFY, L-Mito-FFY was separately synthesized and purified (Fig. S2A and B, ESI ^†). It was supposed after the phosphate group cleaved from the ALP enzyme. The L-tyrosine phosphate was replaced with L-tyrosine. Its self-assembled morphology was analyzed via TEM. Similar fibers with a diameter of 10 nm were observed (Fig. S3, ESI ^†), confirming that ALP transforms the L-Mito-FFYp micelles into L-Mito-FFY fibers.
Fig. 1 (A) CAC determination of L-Mito-FFYp using pyrene excitation method. […]

Where two headings read alike, the source gives them in different places.

Turning to `NC(=O)[C@H](CCCCNCCCCCC[P+](c1ccccc1)(c1ccccc1)c1ccccc1)NC(=O)[C@H](Cc1ccc(OP(=O)(O)O)cc1)NC(=O)[C@H](Cc1ccccc1)NC(=O)[C@H](Cc1ccccc1)NC(=O)CCCc1ccc2ccc3cccc4ccc1c2c34` [L-Mito-FFYp], the Micelle diameter in [1] was determined as 53 nm. Also, the “Cytochrome C release from the mitochondria” value in the series on cytochrome C is given as “released”. In series [2], the “Toxicity in the presence of ALP inhibitor” value is listed as “remarkably reduced”. The “Mechanism of cell death” value in the series on Saos-2 cells is “late apoptosis”. In addition, the IC50 with Saos-2 cell line [3] (Saos-2, 48 h incubation, MTT, read-out: Concentration at which 50% viability was observed) was approximately 5 µM; in the series with Saos-2 cell line [3] (human) it was approximately 10 µM; with HeLa cells it was approximately 5 µM. For the same molecule, the Cell viability in the series with SK-BR-3 cell line and in the series with NIH-3T3 cell line was approximately 90% in each case. Also, the “Cellular ROS” value with Saos-2 cell line [4] was “overproduction of ROS”. In addition, the “Surface charge (zeta potential)” value in series [5] is recorded as −25.6 ± 0.32 mV. For the same molecule, in series [6], the “Critical Aggregation Concentration (CAC)” value was determined as 12 µM.
